“Also recorded” adds a separate entry of the source.

Consider one compound from patent publication US10493061B2, “Compositions and methods comprising 2-(acylamino)imidazoles” (priority 2014, dated 2019).

One data set has as its system MCF-10A cells. Put plainly: Intracellular Zn^2+ by FluoZin-3 staining and flow cytometry. In kind it is cell-based, human. The method, then: (§1) Measurement of intracellular Zn^2+ by FluoZin-3 staining: Cells were seeded in 6-well plates at a density such that at the time of analysis, wells would be 70-80% confluent. Following the completion of treatment, the drug-containing media was removed and replaced with Hank's Balanced Salt Solution (HBSS, Life Technologies) containing 2.5 μM FluoZin-3. The cells were incubated with the indicator for 30 minutes at room temperature in the dark. After staining, the cells were trypsinized, resuspended in HBSS containing 2% FBS, and relative mean fluorescence was measured by flow cytometry (FACscan, BD Biosciences, San Jose, Calif., USA).
(§2) In order to determine whether the transcriptional changes in metal trafficking genes were functionally relevant to ZNA's mechanism of action, intracellular Zn^2+ was quantified using the fluorescent indicator FluoZin-3 followed by flow cytometry analysis (FIG. 1G).
To better understand the cancer-selective synergism observed between ZNA and Zn^2+, an experiment was conducted to measure intracellular Zn^2+ using the fluorescent Zn^2+ indicator FluoZin-3.
(§3) Further probing the ability of ZNA to stimulate increases in intracellular Zn^2+, MCF-10A and MCF-7 cells were treated for three hours with 30 μM ZNA (both with and without exogenous ZnSO4) in zinc-free media; intracellular zinc was then quantified by FluoZin-3 staining (FIG. 3B).
On the technique in general: In flow cytometry, cells or beads pass a laser one at a time.

The test system of data set [1] is transplanted PyMT mammary tumors. Put plainly: Mouse mammary tumor model (transplanted PyMT tumors), Kaplan-Meier survival. In kind it is in vivo. The method, then: In vivo ZNA studies: Mouse studies were conducted with the approval of an institutional animal care and use committee. FVB/NJ mice were obtained from The Jackson Laboratory (Bar Harbor, Me., USA). In preparation for the in vivo study, EF1α-PyMT mouse mammary tumors were generated in donor mice and the tumors resected and prepared as single cells as described previously by Smith et al. (6). These cells were suspended in Matrigel (BD Biosciences) and injected (50,000 cells per 10 μL injection) into the uncleared mammary fat pad of 3-week old female recipient FVB/NJ mice. Twenty-one days following the transplant, the mice were randomized, and drug treatment was initiated; the mice were treated once a day for 21 days, and a tumor diameter ≥2 cm was established as an endpoint. ZNA (100 mg/kg) or the matched vehicle control was administered to each mouse via a 200-μL intraperitoneal injection of ZNA diluted into DMSO, then diluted into phosphate buffered saline to a final DMSO concentration of 5%. ZnSO4 was administered continuously for the 21-day treatment period to the appropriate groups via drinking water (25 mM ZnSO4.7H2O).
Statistics: The student's t-test (unpaired) was used to assess statistical significance and a p≤0.05 was considered statistically significant. Statistical significance between Kaplan-Meier survival curves was measured by the Mantel-Cox test using Prism 6.0 (GraphPad Software). The following P-values were used to annotate statistical significance: p≤0.05=*; p≤0.01=**; p≤0.001=***.
Next, the efficacy of the compound was tested in an in vivo tumor model. […] Mice were treated once a day for 21 days, and four treatment conditions were assessed: ZNA (100 mg/kg administered via intraperitoneal), ZnSO4 (25 mM administered continuously for the duration of treatment via drinking water), a combination of ZNA and ZnSO4, and a control group (PBS administered via intraperitoneal injection); a tumor diameter greater than 2 cm was established as an endpoint.

Another data set has as its system MCF-7 cells. Put plainly: Intracellular Zn^2+ by FluoZin-3 staining and flow cytometry. In kind it is cell-based, human. As to the method:
as §1, §2, §3

In data set [2] the test system is MCF-10A normal mammary epithelial cell line. As to the kind of experiment: Cell viability (ATP quantification) with exogenously added transition metals.
Procedure: Three breast cancer cell lines (MCF-7, T47D, and MDA-MB-231) and a normal mammary epithelial cell line (MCF-10A) were treated with 30 μM ZNA in conjunction with 30 M CuSO4, ZnSO4, Fe(III)Cl3, Fe(II)SO4, NiSO4, MnCl2, or CoCl2 for 48 hours; following the completion of treatment, cell viability was measured using an ATP quantification assay (FIG. 2A).
Setting [3] is: 30 μM ZNA alone, three hours, zinc-free media.
The mark [4] stands for this setting: ZNA and ZnSO4, three hours, zinc-free media, compared to ZnSO4 alone.

With `COc1ccc(-c2c(Cc3ccccc3)[nH]/c(=N\C(=O)c3ccccc3F)n2C)cc1` [ZNA, (E)-N-(4-benzyl-5-(4-methoxyphenyl)-1-methyl-1H-imidazol-2(3H)-ylidene)-2-fluorobenzamide], the FluoZin-3 fluorescence result in the data set on MCF-10A cells (setting [3]) and in the data set on MCF-7 cells (setting [3]) was “no significant increase in FluoZin-3 fluorescence” throughout. In the data set on MCF-10A cells (30 μM ZNA alone, up to 48 hours), the “intracellular zinc (FluoZin-3)” value was “only modest increases in intracellular zinc”. In addition, the “increase in FluoZin-3 fluorescence” value with MCF-10A cells (30 μM ZNA with 30 μM ZnSO4, three hours) worked out at 9 fold; in the data set on MCF-7 cells (30 μM ZNA alone, 48 hours), 13 fold. The “fluorescence (FluoZin-3)” value in the data set on MCF-10A cells (setting [4]) was “reduction in fluorescence”. The survival result in data set [1] (ZNA 100 mg/kg ip once a day for 21 days, vs control-treated group) was “statistically significant survival advantage”; in data set [1] (ZNA 100 mg/kg ip once a day with 25 mM ZnSO4 in drinking water, 21 days, vs ZnSO4-only group), “statistically significant survival advantage”. For the same compound, the “general toxicity, adverse reactions, body weight” value in data set [1] (mice, ZNA 100 mg/kg alone or with ZnSO4) is “no general toxicity, adverse reactions, or decreases in body weight were observed; also recorded: without detrimental effects on mouse weight and health”. Besides, in the data set on MCF-7 cells (setting [4]), the “increase in fluorescence (FluoZin-3)” value amounted to 4.3 fold. Also, the cell viability entry in data set [2] (30 μM ZNA with CuSO4, 48 hours) is “significant reduction in cell viability”; in data set [2] (30 μM ZNA with ZnSO4, 48 hours), “only a partial reduction in cell number”.
